Test results from patent US5068247A, “2-aminopentanoic acid compounds and their use as immunosuppressants” (priority 1989, dated 1991).
Where two headings read alike, the source gives them in different places.

Assays:
K562 = assay: cytotoxicity to cultured tumor cell line K562
Procedure: (§1) Cytotoxicity to various human tumor cell lines was examined as follows:
(§2) Cells of human cell lines, K562, MOLT4, U937 and HL60 were respectively suspended to the concentration of 4×10^5 cells/ml in the RPMI1640 culture medium supplemented with 20% FCS. Fifty μl of each suspension was added to each well of a 96-well microtest plate to which 50 μl of the test solution had been added. After culturing the suspension at 37° C. in an atmosphere of 5% carbon dioxide for 72 hours, the absorbancy at 570 nm was measured in the same way as with the colorimetry using MTT in Experiment Example 1, and the percent suppression was calculated by the following formula, which was used as an index of cytotoxicity.

[1] = cytotoxicity to cultured tumor cell line K562; conditions: human, k562 cells, Suppression
Procedure: as §1, §2

HL60 = assay: cytotoxicity to cultured tumor cell line HL60
Procedure: as §1, §2

[2] = cytotoxicity to cultured tumor cell line HL60; conditions: human, hl60 cells, Suppression
Procedure: as §1, §2

[3] = test system: IL-2 production in PHA-stimulated mouse spleen cells; assay: suppression of IL-2 production in PHA-stimulated mouse spleen cells; format: cell-based
How it was run: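 C3H/HeN male spleen cells (10^7 cells/ml, RPMI1640 + 20% FCS) stimulated with 10 μg/ml PHA; supernatants collected after culture. IL-2 activity titrated by two-fold serial dilution on IL-2-dependent CTLL-2 cells (2×10^5 cells/ml, 30% FCS), MTT read-out. Expressed as U/ml, the dilution giving 50% of maximal absorbance.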

MOLT4 = assay: cytotoxicity to cultured tumor cell line MOLT4; format: cell-based, human
Procedure: as §1, §2

[4] = cytotoxicity to cultured tumor cell line MOLT4; format: cell-based, human; conditions: human, molt4 cells, read-out: Suppression
Procedure: as §1, §2

[5] = test system: allo-reactive cytotoxic T cell (EL4 target cells); assay: suppression of induction of allo-reactive cytotoxic T cell in mouse allogenic mixed lymphocyte culture (MLC), 51Cr release; format: cell-based
Procedure: The target cells used were leukemia cells EL4 from the syngenic (H-2^b) C57BL/6 mouse as used for preparation of the stimulator cells. By incubating 10^6 EL4 cells in the presence of 370 KBq of Na2^51 CrO4 at 37° C. for 1 hour, ^51 Cr was incorporated into the cytoplasm. The cells were washed, adjusted to the concentration of 10^4 cells/ml and used as the target cells.
For the assay of the cytotoxic activity, 100 μl of the effector cell suspension and 100 μl of the target cell suspension were added to a 96-well flat-bottomed microculture plate, and cultured at 37° C. for 4 hours. The amount of ^51 Cr released into the supernatant was determined and the cytotoxic activity was calculated by the following formula. [formula]
The activity of the cytotoxic T cell is expressed by LU (lytic unit) per 10^6 effector cells.

[6] = test system: human allogenic MLR (human peripheral blood lymphocytes); assay: human allogenic MLR-suppressive activity, 3H-thymidine uptake; format: cell-based; conditions: for inhibition at 0.001 µg/mL: read-out: Suppression, 0.001 μg/ml; for inhibition at 0.01 µg/mL: read-out: Suppression, 0.01 μg/ml; for inhibition at 0.1 µg/mL: read-out: Suppression, 0.1 μg/ml; for inhibition at 1 µg/mL: read-out: Suppression, 1 μg/ml
Procedure: The human allogenic MLR-suppressive activity was assayed as follows:
Human peripheral blood lymphocytes obtained by Ficoll-Paque density gradient centrifugation of normal human peripheral blood were suspended in the RPMI1640 culture medium supplemented with 10% FCS, placed in a plastic dish, and cultured in an atmosphere of 5% carbon dioxide and 95% air at 37° C. for 2 hours. After termination of culture, the supernatant after gentle pipetting was collected and centrifuged (1000 rpm, for 5 minutes) to obtain plastic-nonadherent cells. The plastic-nonadherent cells were allowed to pass through a nylon-wool column to give nylon-nonadherent cells, and the concentration of the cell suspension was adjusted to 4×10^6 cells/ml by using the RPMI1640 culture medium supplemented with 10% FCS, and used as the responder cell suspension.
The plastic-adherent cells were removed from the plastic dish by vigorous pipetting after addition of phosphate buffered saline (PBS) supplemented with 5% FCS and 0.02% disodium ethylenediaminetetraacetic acid (EDTA). The plastic-adherent cells were treated with 40 μg/ml of mitomycin C at 37° C. for 60 minutes, washed three times, and suspended to the concentration of 4×10^6 cells/ml in the RPMI1640 culture medium supplemented with 10% FCS. The resultant suspension was used as the stimulator cell suspension.
After termination of culture, 37 KBq/well of ^3 H-thymidine was added, and after 18 hours of culture, the cells were harvested by a cell-harvester. The radioactivity incorporated into the cells was measured by a liquid scintillation counter, which was used as an index of blastogenic response of lymphocytes in human allogenic MLR. The suppression of human allogenic MLR was evaluated by calculating the percent suppression by the following formula. [formula]

[7] = Mus musculus, 24 h, read-out: Suppression
[8] = Homo sapiens, Lymphocyte, Donor A/Donor B
[9] = Homo sapiens, Lymphocyte, Donor C/Donor D

`CCCCCCCCCCCCCCCC[C@@H](O)[C@H](O)[C@@](N)(CO)C(=O)O` [Example 2] gave an Absorbancy (K562; 0.1 μg/ml) of 1.128 ± 0.025, an Absorbancy (K562; 1 μg/ml) of 1.103 ± 0.045 and an Absorbancy (K562; 10 μg/ml) of 1.086 ± 0.045. For the same compound, the cytotoxicity at 72 h ([1]; 0.1 μg/ml) was 0.7%, the cytotoxicity at 72 h ([1]; 1 μg/ml) was 2.9% and the cytotoxicity at 72 h ([1]; 10 μg/ml) was 4.4%. The Absorbancy (HL60; 0.1 μg/ml) was 1.385 ± 0.066, the Absorbancy (HL60; 1 μg/ml) was 1.466 ± 0.126 and the Absorbancy (HL60; 10 μg/ml) was 1.441 ± 0.018. For the same compound, the cytotoxicity at 72 h ([2]; 0.1 μg/ml) was 7%, the cytotoxicity at 72 h ([2]; 1 μg/ml) was 1.6% and the cytotoxicity at 72 h ([2]; 10 μg/ml) was 3.3%. It also gave an IL-2 activity ([3]; 0.001 μg/ml) of 12.1 U/ml, an IL-2 activity ([3]; 0.01 μg/ml) of 7.0 U/ml and an IL-2 activity ([3]; 0.1 μg/ml) of 6.1 U/ml. For the same compound, the IL-2 activity ([3]; 1 μg/ml) was 3.7 U/ml, the inhibition at 0.001 µg/mL [3, 7] was 0% and the inhibition at 0.01 µg/mL [3, 7] was 42.1%. The inhibition at 0.1 µg/mL [3, 7] was 49.6%, the inhibition at 1 µg/mL [3, 7] was 69.4% and the Absorbancy (MOLT4; 0.1 μg/ml) was 1.144 ± 0.040. The Absorbancy (MOLT4; 1 μg/ml) was 1.027 ± 0.009, the Absorbancy (MOLT4; 10 μg/ml) was 1.045 ± 0.041 and the cytotoxicity at 72 h ([4]; 0.1 μg/ml) was 0.9%. It also gave a cytotoxicity at 72 h ([4]; 1 μg/ml) of 11%, a cytotoxicity at 72 h ([4]; 10 μg/ml) of 9.4% and a Cytotoxic activity ([5]; 0.001 μg/ml, BALB/c responder) of 16.0 LU/10^6. For the same compound, the Cytotoxic activity ([5]; 0.01 μg/ml, BALB/c responder) was 13.0 LU/10^6, the Cytotoxic activity ([5]; 0.1 μg/ml, BALB/c responder) was under 1.0 LU/10^6 and the Cytotoxic activity ([5]; 1 μg/ml, BALB/c responder) was under 1.0 LU/10^6. It also gave an inhibition at 0.001 µg/mL ([5]; Mus musculus, T-cell, 144 h, 0.001 μg/ml, BALB/c responder) of 18.4%, an inhibition at 0.01 µg/mL ([5]; Mus musculus, T-cell, 144 h, 0.01 μg/ml, BALB/c responder) of 33.6% and an inhibition at 0.1 µg/mL ([5]; Mus musculus, T-cell, 144 h, 0.1 μg/ml, BALB/c responder) of over 95%. For the same compound, the inhibition at 1 µg/mL ([5]; Mus musculus, T-cell, 144 h, 1 μg/ml, BALB/c responder) was over 95%, the “induction of the allo-reactive cytotoxic T cell (in words), BALB/c responder” value ([5]; Table 3A) was “markedly inhibited” and the 3H-thymidine uptake ([6]; 0.00001 μg/ml, Donor C/Donor D) was 13909 cpm. The 3H-thymidine uptake ([6]; 0.0001 μg/ml, Donor C/Donor D) was 15259 cpm, the 3H-thymidine uptake ([6]; 0.001 μg/ml, Donor A/Donor B) was 9258 cpm and the 3H-thymidine uptake ([6]; 0.001 μg/ml, Donor C/Donor D) was 15503 cpm. The 3H-thymidine uptake ([6]; 0.01 μg/ml, Donor A/Donor B) was 8119 cpm, the 3H-thymidine uptake ([6]; 0.01 μg/ml, Donor C/Donor D) was 11263 cpm and the 3H-thymidine uptake ([6]; 0.1 μg/ml, Donor A/Donor B) was 4624 cpm. It also gave a 3H-thymidine uptake ([6]; 0.1 μg/ml, Donor C/Donor D) of 7300 cpm, a 3H-thymidine uptake ([6]; 1 μg/ml, Donor A/Donor B) of 7130 cpm and a 3H-thymidine uptake ([6]; 1 μg/ml, Donor C/Donor D) of 6583 cpm. For the same compound, the “suppressive activity in human allogenic MLR (in words)” value ([6]; 1 to 0.0001 μg/ml) was “exhibited suppressive activity in human allogenic MLR in a concentration-dependent manner”, the inhibition at 10 pg/mL ([6]; Homo sapiens, Lymphocyte, read-out: Suppression, 0.00001 μg/ml, Donor C/Donor D) was 31.4% and the inhibition at 0.0001 µg/mL ([6]; Homo sapiens, Lymphocyte, read-out: Suppression, 0.0001 μg/ml, Donor C/Donor D) was 24.5%. The inhibition at 0.001 µg/mL [6, 8] was 23.6%, the inhibition at 0.001 µg/mL [6, 9] was 23.2% and the inhibition at 0.01 µg/mL [6, 8] was 33.8%. The inhibition at 0.01 µg/mL [6, 9] was 44.9%, the inhibition at 0.1 µg/mL [6, 8] was 65.2% and the inhibition at 0.1 µg/mL [6, 9] was 65%. For the same compound, the inhibition at 1 µg/mL [6, 8] was 42.7% and the inhibition at 1 µg/mL [6, 9] was 68.7%.
